Measured values published in US20230159496A1, “COMPOUNDS AND METHODS FOR MODULATING SPLICING” (REMIX THERAPEUTICS INC., priority 2020, published 2023).
Read-outs that look alike come from different tables or passages of the source.

System: HTT mRNA
Test: Splicing assay (RT-qPCR) monitoring HTT canonical junction (CJ) and alternative junction (AJ) mRNA isoforms
Type: cell-based
Details: A673 or K562 cells, 24 h treatment, top dose 10 uM
Protocol: Compounds described herein were used to modulate RNA transcript abundance in cells. The expression of a target mRNA was measured by detecting the formation of an exon-exon junction in the canonical transcript (CJ). A compound mediated exon-inclusion event was detected by observing an increase in formation of a new junction with an alternative exon (AJ). Real-time qPCR assays were used to detect these splicing switches and interrogate the potency of various compounds towards different target genes. A high-throughput real time quantitative PCR (RT-qPCR) assay was developed to measure these two isoforms of the mRNA (CJ and AJ) for an exemplary gene, HTT, together with a control housekeeping gene, GAPDH or GUSB or PPIA, used for normalization. Briefly, the A673 or K562 cell line was treated with various compounds described herein (e.g., compounds of Formula (I)). After treatment, the levels of the HTT mRNA targets were determined from each sample of cell lysate by cDNA synthesis followed by qPCR.
• Cells-to-CT 1-step kit: ThermoFisher A25602, Cells-to-CT lysis reagent: ThermoFisher 4391851C, TaqMan™ Fast Virus 1-Step Master Mix: ThermoFisher 4444436 • GAPDH: VIC-PL, ThermoFisher 4326317E (Assay: Hs99999905_m1)—used for K562/suspension cell lines • GUSB: VIC-PL, ThermoFisher 4326320E (Assay: Hs99999908_m1)—used for K562/suspension cell lines • PPIA: VIC-PL, ThermoFisher 4326316E (Assay: Hs99999904_m1) — used for A673/adherent cell lines
The A673 cell line was cultured in DMEM with 10% FBS. Cells were diluted with full growth media and plated in a 96-well plate (15,000 cells in 100 ul media per well). The plate was incubated at 37° C. with 5% CO2 for 24 hours to allow cells to adhere. An 11-point 3-fold serial dilution of the compounds was made in DMSO then diluted in media in an intermediate plate. Compounds were transferred from the intermediate plate to the cell plate with the top dose at a final concentration of 10 uM in the well. Final DMSO concentration was kept at or below 0.25%. The cell plate was returned to the incubator at 37° C. with 5% CO2 for an additional 24 hours.
The K562 cell line was cultured in IMDM with 10% FBS. For K562, cells were diluted with full growth media and plated in either a 96-well plate (50,000 cells in 50 uL media per well) or a 384-well plate (8,000-40,000 cells in 45 uL media per well). An 11-point 3-fold serial dilution of the compounds were made in DMSO then diluted in media in an intermediate plate. Compound was transferred from the intermediate plate to the cell plate with the top dose at a final concentration of 10 uM in the well. Final DMSO concentration was kept at or below 0.25%. Final volume was 100 uL for 96-well plate and 50 uL for 384-well plate. The cell plate was then placed in an incubator at 37° C. with 5% CO2 for 24 hours.
The cells were then gently washed with 50 uL-100 uL cold PBS before proceeding to addition of lysis buffer. 30 uL-50 uL of room temperature lysis buffer with DNAse I (and optionally RNAsin) was added to each well. Cells were shaken/mixed thoroughly at room temperature for 5-10 minutes for lysis to take place and then 3 uL-5 uL of room temperature stop solution was added and wells were shaken/mixed again. After 2-5 minutes, the cell lysate plate was transferred to ice for RT-qPCR reaction setup. The lysates could also be frozen at −80° C. for later use.
In some cases, a direct lysis buffer was used. An appropriate volume of 3× lysis buffer (10 mM Tris, 150 mM NaCl, 1.5%-2.5% Igepal and 0.1-1 U/uL RNAsin, pH 7.4) was directly added to either K562 or A673 cells in media and mixed by pipetting 3 times. The plates were then incubated at room temperature with shaking/rocking for 20-50 minutes to allow for lysis to take place. After this time, the cell lysate plate was transferred to ice to set up for the RT-qPCR reactions. The lysates could also be frozen at −80° C. for later use. […]

[1] = decrease in CJ mRNA (50% response), read-out: HTT CJ AC50
[2] = increase in AJ mRNA (50% response), read-out: HTT AJ AC50

Cc1cn2nc(-c3ccc4c(c3)CCN(C3CCNCC3)C4=O)cc(C)c2n1 [Compound 185, 6-[2,8-dimethylimidazo [1,2-b]pyridazin-6-yl]-2-(piperidin-4-yl) -3,4-dihydroisoquinolin-1-one]
AC50 [1]: 0.1 to 1 µM | AC50 [2]: 1 to 10 µM

Cc1cn2nc(-c3ccc4c(=O)n(C5CCNCC5)ncc4c3)cc(C)c2n1 [Compound 186, 6-[2,8-dimethylimidazo[1,2-b]pyridazin-6-yl]-2-(piperidin-4-yl)phthalazin-1-one]
AC50 [1]: < 0.1 µM | AC50 [2]: < 0.1 µM

Cc1cn2nc(-c3ccc4c(c3F)CCN(C3CCNCC3)C4=O)cc(C)c2n1 [Compound 188, 6-{2,8-dimethylimidazo[1,2-b]pyridazin-6-yl}-5-fluoro-2-(piperidin-4-yl)-3,4-dihydroisoquinolin-1-one]
AC50 [1]: 1 to 10 µM | AC50 [2]: 1 to 10 µM

Cc1cn2cc(-c3ccc4c(=O)n(C5CCNCC5)ncc4c3)nc2c(C)n1 [Compound 258]
AC50 [1]: 1 to 10 µM | AC50 [2]: > 10 µM
